Laboratory results reported in ChEMBL document CHEMBL3885881, “DrugMatrix”.

Organism: Rattus norvegicus
Assay: DrugMatrix - Regimen: Daily Repeat
Assay type: toxicity, organism-based, Sprague-Dawley
Design: regimen Daily Repeat, gender Male, age 6-8 weeks
Details: in vivo, po, route oral GAVAGE, […]; for ABSOLUTE BASOPHIL / ABSOLUTE EOSINOPHIL / ABSOLUTE LYMPHOCYTE / ABSOLUTE MONOCYTE / ABSOLUTE SEGMENTED NEUTROPHIL / BASOPHIL / EOSINOPHIL / ERYTHROCYTE COUNT / HEMATOCRIT / HEMOGLOBIN / LEUKOCYTE COUNT / LYMPHOCYTE / MEAN CORPUSCULAR HEMOGLOBIN / MEAN CORPUSCULAR HEMOGLOBIN CONCENTRATION / MEAN CORPUSCULAR VOLUME / MONOCYTE / NEUTROPHIL / NUCLEATED RED BLOOD CELLS / PLATELET COUNT: tissue Blood; for ALANINE AMINOTRANSFERASE / ALBUMIN / ALKALINE PHOSPHATASE / ASPARTATE AMINOTRANSFERASE / BLOOD UREA NITROGEN / CARBON DIOXIDE / CHLORIDE / CHOLESTEROL / CREATINE PHOSPHOKINASE / CREATININE / GLUCOSE / LACTATE DEHYDROGENASE / LIPASE / PHOSPHORUS / POTASSIUM / SODIUM / TOTAL BILIRUBIN / TOTAL PROTEIN / URIC ACID: tissue Plasma
[1] = 10 mg/kg, 72 h, dose level Low, time 3 day
[2] = 10 mg/kg, 120 h, dose level Low, time 5 day
[3] = 25 mg/kg, 72 h, dose level High, time 3 day
[4] = 25 mg/kg, 120 h, dose level High, time 5 day

SMILES: Sc1ncnc2nc[nH]c12 [MERCAPTOPURINE ANHYDROUS]
- ABSOLUTE BASOPHIL [1]: 0 CELLS/uL
- ABSOLUTE EOSINOPHIL [1]: 96.67 CELLS/uL
- ABSOLUTE LYMPHOCYTE [1]: 10655 CELLS/uL
- ABSOLUTE MONOCYTE [1]: 48.33 CELLS/uL
- ABSOLUTE SEGMENTED NEUTROPHIL [1]: 1066.67 CELLS/uL
- BASOPHIL [1]: 0%
- EOSINOPHIL [1]: 0.67%
- ERYTHROCYTE COUNT [1]: 5.09 x10E6/uL
- HEMATOCRIT [1]: 31.73%
- HEMOGLOBIN [1]: 12.87 G/DL
- LEUKOCYTE COUNT [1]: 11.87 x10E3/uL
- LYMPHOCYTE [1]: 90.33%
- MEAN CORPUSCULAR HEMOGLOBIN [1]: 25.3 pg
- MEAN CORPUSCULAR HEMOGLOBIN CONCENTRATION [1]: 40.6 G/DL
- MEAN CORPUSCULAR VOLUME [1]: 62.4 fL
- MONOCYTE [1]: 0.33%
- NEUTROPHIL [1]: 8.67%
- NUCLEATED RED BLOOD CELLS [1]: 0 /100WBC
- PLATELET COUNT [1]: 1148.67 x10E3/uL
- ALANINE AMINOTRANSFERASE [1]: 66.33 u/L
- ALBUMIN [1]: 3.9 G/DL
- ALKALINE PHOSPHATASE [1]: 364.67 u/L
- ASPARTATE AMINOTRANSFERASE [1]: 83 u/L
- BLOOD UREA NITROGEN [1]: 13 mg/dL
- CARBON DIOXIDE [1]: 30.33 mmol/L
- CHLORIDE [1]: 99 MEQ/L
- CHOLESTEROL [1]: 73.67 mg/dL
- CREATINE PHOSPHOKINASE [1]: 175.33 u/L
- CREATININE [1]: 0.15 mg/dL
- GLUCOSE [1]: 164.33 mg/dL
- LACTATE DEHYDROGENASE [1]: 112.33 u/L
- LIPASE [1]: 11.33 u/L
- PHOSPHORUS [1]: 11.03 mg/dL
- POTASSIUM [1]: 6.32 MEQ/L
- SODIUM [1]: 142.6 MEQ/L
- TOTAL BILIRUBIN [1]: 0.2 mg/dL
- TOTAL PROTEIN [1]: 5.6 G/DL
- URIC ACID [1]: 1.4 mg/dL
- ABSOLUTE BASOPHIL [2]: 0 CELLS/uL
- ABSOLUTE EOSINOPHIL [2]: 128 CELLS/uL
- ABSOLUTE LYMPHOCYTE [2]: 12203 CELLS/uL
- ABSOLUTE MONOCYTE [2]: 203 CELLS/uL
- ABSOLUTE SEGMENTED NEUTROPHIL [2]: 1366 CELLS/uL
- BASOPHIL [2]: 0%
- EOSINOPHIL [2]: 0.67%
- ERYTHROCYTE COUNT [2]: 5.76 x10E6/uL
- HEMATOCRIT [2]: 36.7%
- HEMOGLOBIN [2]: 14.3 G/DL
- LEUKOCYTE COUNT [2]: 13.9 x10E3/uL
- LYMPHOCYTE [2]: 88.67%
- MEAN CORPUSCULAR HEMOGLOBIN [2]: 24.83 pg
- MEAN CORPUSCULAR HEMOGLOBIN CONCENTRATION [2]: 38.97 G/DL
- MEAN CORPUSCULAR VOLUME [2]: 63.73 fL
- MONOCYTE [2]: 1.33%
- NEUTROPHIL [2]: 9.33%
- NUCLEATED RED BLOOD CELLS [2]: 0 /100WBC
- PLATELET COUNT [2]: 1127 x10E3/uL
- ALANINE AMINOTRANSFERASE [2]: 61 u/L
- ALBUMIN [2]: 4.33 G/DL
- ALKALINE PHOSPHATASE [2]: 384.33 u/L
- ASPARTATE AMINOTRANSFERASE [2]: 75 u/L
- BLOOD UREA NITROGEN [2]: 15 mg/dL
- CARBON DIOXIDE [2]: 29.33 mmol/L
- CHLORIDE [2]: 100.33 MEQ/L
- CHOLESTEROL [2]: 73.67 mg/dL
- CREATINE PHOSPHOKINASE [2]: 274.33 u/L
- CREATININE [2]: 0.22 mg/dL
- GLUCOSE [2]: 153.67 mg/dL
- LACTATE DEHYDROGENASE [2]: 111 u/L
- LIPASE [2]: 12.67 u/L
- PHOSPHORUS [2]: 10.1 mg/dL
- POTASSIUM [2]: 6.41 MEQ/L
- SODIUM [2]: 142.27 MEQ/L
- TOTAL BILIRUBIN [2]: 0.17 mg/dL
- TOTAL PROTEIN [2]: 5.97 G/DL
- URIC ACID [2]: 1.13 mg/dL
- ABSOLUTE BASOPHIL [3]: 0 CELLS/uL
- ABSOLUTE EOSINOPHIL [3]: 0 CELLS/uL
- ABSOLUTE LYMPHOCYTE [3]: 6679.67 CELLS/uL
- ABSOLUTE MONOCYTE [3]: 205.33 CELLS/uL
- ABSOLUTE SEGMENTED NEUTROPHIL [3]: 481.67 CELLS/uL
- BASOPHIL [3]: 0%
- EOSINOPHIL [3]: 0%
- ERYTHROCYTE COUNT [3]: 6.41 x10E6/uL
- HEMATOCRIT [3]: 40.73%
- HEMOGLOBIN [3]: 15.47 G/DL
- LEUKOCYTE COUNT [3]: 7.37 x10E3/uL
- LYMPHOCYTE [3]: 91%
- MEAN CORPUSCULAR HEMOGLOBIN [3]: 24.1 pg
- MEAN CORPUSCULAR HEMOGLOBIN CONCENTRATION [3]: 38 G/DL
- MEAN CORPUSCULAR VOLUME [3]: 63.4 fL
- MONOCYTE [3]: 2.67%
- NEUTROPHIL [3]: 6.33%
- NUCLEATED RED BLOOD CELLS [3]: 0.33 /100WBC
- PLATELET COUNT [3]: 972 x10E3/uL
- ALANINE AMINOTRANSFERASE [3]: 61.67 u/L
- ALBUMIN [3]: 4.17 G/DL
- ALKALINE PHOSPHATASE [3]: 420.33 u/L
- ASPARTATE AMINOTRANSFERASE [3]: 105.67 u/L
- BLOOD UREA NITROGEN [3]: 12 mg/dL
- CARBON DIOXIDE [3]: 28 mmol/L
- CHLORIDE [3]: 99.33 MEQ/L
- CHOLESTEROL [3]: 77.33 mg/dL
- CREATINE PHOSPHOKINASE [3]: 602.33 u/L
- CREATININE [3]: 0.16 mg/dL
- GLUCOSE [3]: 163 mg/dL
- LACTATE DEHYDROGENASE [3]: 320 u/L
- LIPASE [3]: 13 u/L
- PHOSPHORUS [3]: 11.97 mg/dL
- POTASSIUM [3]: 6.85 MEQ/L
- SODIUM [3]: 141.03 MEQ/L
- TOTAL BILIRUBIN [3]: 0.2 mg/dL
- TOTAL PROTEIN [3]: 5.8 G/DL
- URIC ACID [3]: 1.57 mg/dL
- ABSOLUTE BASOPHIL [4]: 0 CELLS/uL
- ABSOLUTE EOSINOPHIL [4]: 80.67 CELLS/uL
- ABSOLUTE LYMPHOCYTE [4]: 12020.67 CELLS/uL
- ABSOLUTE MONOCYTE [4]: 204.67 CELLS/uL
- ABSOLUTE SEGMENTED NEUTROPHIL [4]: 927.33 CELLS/uL
- BASOPHIL [4]: 0%
- EOSINOPHIL [4]: 0.67%
- ERYTHROCYTE COUNT [4]: 5.62 x10E6/uL
- HEMATOCRIT [4]: 34.93%
- HEMOGLOBIN [4]: 13.6 G/DL
- LEUKOCYTE COUNT [4]: 13.23 x10E3/uL
- LYMPHOCYTE [4]: 91%
- MEAN CORPUSCULAR HEMOGLOBIN [4]: 24.33 pg
- MEAN CORPUSCULAR HEMOGLOBIN CONCENTRATION [4]: 39 G/DL
- MEAN CORPUSCULAR VOLUME [4]: 62.3 fL
- MONOCYTE [4]: 1.33%
- NEUTROPHIL [4]: 7%
- NUCLEATED RED BLOOD CELLS [4]: 0 /100WBC
- PLATELET COUNT [4]: 1431.67 x10E3/uL
- ALANINE AMINOTRANSFERASE [4]: 58 u/L
- ALBUMIN [4]: 4.4 G/DL
- ALKALINE PHOSPHATASE [4]: 341 u/L
- ASPARTATE AMINOTRANSFERASE [4]: 91.33 u/L
- BLOOD UREA NITROGEN [4]: 10.67 mg/dL
- CARBON DIOXIDE [4]: 25 mmol/L
- CHLORIDE [4]: 100.33 MEQ/L
- CHOLESTEROL [4]: 73 mg/dL
- CREATINE PHOSPHOKINASE [4]: 601.67 u/L
- CREATININE [4]: 0.13 mg/dL
- GLUCOSE [4]: 164 mg/dL
- LACTATE DEHYDROGENASE [4]: 169.67 u/L
- LIPASE [4]: 12.33 u/L
- PHOSPHORUS [4]: 11.07 mg/dL
- POTASSIUM [4]: 7.18 MEQ/L
- SODIUM [4]: 142.8 MEQ/L
- TOTAL BILIRUBIN [4]: 0.17 mg/dL
- TOTAL PROTEIN [4]: 6.07 G/DL
- URIC ACID [4]: 1.5 mg/dL
